Measured values published in ChEMBL document CHEMBL6087402, “Design, synthesis, and in vitro and in vivo biological evaluation of dihydroartemisinin derivatives as potent anti-cancer agents with ferroptosis-inducing and apoptosis-activating properties” (Eur J Med Chem, 2025).
pIC50: −log10 of the molar value.

What was measured:
[1] = test system: SW-620; experiment: Anti-proliferative activity against human SW620 cells incubated for 72 hrs by MTT assay; type: functional, cell-based; settings: SW-620, 72 h
[2] = test system: A549; experiment: Anti-proliferative activity against human A549 cells incubated for 72 hrs by MTT assay; type: functional, cell-based; settings: A549, 72 h
[3] = test system: HCT-116; experiment: Anti-proliferative activity against human HCT-116 cells incubated for 72 hrs by MTT assay; type: functional, cell-based; settings: HCT-116, 72 h
[4] = test system: Bel-7402; experiment: Anti-proliferative activity against human Bel-7402 cells incubated for 72 hrs by MTT assay; type: functional, cell-based; settings: Bel-7402, 72 h
[5] = Anti-proliferative activity against human L02 cells incubated for 72 hrs by MTT assay; type: toxicity, cell-based
[6] = Selectivity index, ratio of IC50 for human L02 cells to IC50 for human Bel-7402 cells; type: toxicity; settings: L02 cells versus Bel-7402 cells, read-out: Ratio IC50
[7] = Selectivity index, ratio of IC50 for human L02 cells to IC50 for human HCT-116 cells; type: toxicity; settings: L02 cells versus HCT-116 cells, read-out: Ratio IC50
[8] = Selectivity index, ratio of IC50 for human L02 cells to IC50 for human A549 cells; type: toxicity; settings: L02 cells versus A549 cells, read-out: Ratio IC50
[9] = Selectivity index, ratio of IC50 for human L02 cells to IC50 for human SW620 cells; type: toxicity; settings: L02 cells versus SW620 cells, read-out: Ratio IC50

SMILES | pIC50 [1] | pIC50 [2] | pIC50 [3] | pIC50 [4] | IC50 at 72 h [5] [µM] | selectivity ratio [6] | selectivity ratio [7] | selectivity ratio [8] | selectivity ratio [9]
C[C@@H]1CC[C@H]2[C@@H](C)C(OC(=O)CCC(=O)OCc3cn(-c4ccc(F)cc4)nn3)O[C@@H]3O[C@@]4(C)CC[C@H]1[C@]32OO4 (some centres undefined) | 5.63 | 5.20 | 5.66 | < 5.00 |  |  |  |  | 
COc1ccc(NC(=O)OC2O[C@@H]3O[C@@]4(C)CC[C@@H]5[C@H](C)CC[C@@H]([C@H]2C)[C@@]35OO4)cc1 (some centres undefined) | 5.97 | 5.24 | 6.04 | 5.08 | 37 | 4.46 | 40.2 | 6.38 | 34.9
C[C@@H]1CC[C@H]2[C@@H](C)C(OC(=O)CCc3nc(-c4ccccc4)no3)O[C@@H]3O[C@@]4(C)CC[C@H]1[C@]32OO4 (some centres undefined) | 5.10 | 5.04 | 5.36 | 5.40 |  |  |  |  | 
C[C@@H]1CC[C@H]2[C@@H](C)C(OC(=O)c3ccc(CN4CCCCC4)cc3)O[C@@H]3O[C@@]4(C)CC[C@H]1[C@]32OO4 (some centres undefined) | 5.15 | < 5.00 | 5.64 | < 5.00 |  |  |  |  | 
C[C@@H]1CC[C@H]2[C@@H](C)C(OC(=O)c3ccc(Cn4cccn4)cc3)O[C@@H]3O[C@@]4(C)CC[C@H]1[C@]32OO4 (some centres undefined) | < 5.00 | 5.15 | 5.64 | < 5.00 |  |  |  |  | 
C[C@@H]1CC[C@H]2[C@@H](C)C(OC(=O)CCC(=O)NCCc3c[nH]c4ccccc34)O[C@@H]3O[C@@]4(C)CC[C@H]1[C@]32OO4 (some centres undefined) | 5.74 | < 5.00 | 5.17 | < 5.00 |  |  |  |  | 
COc1ccc(-n2cc(C(=O)OC3O[C@@H]4O[C@@]5(C)CC[C@@H]6[C@H](C)CC[C@@H]([C@H]3C)[C@@]46OO5)nn2)cc1OC (some centres undefined) | 5.02 | < 5.00 | 5.47 | 5.06 |  |  |  |  | 
C[C@@H]1CC[C@H]2[C@@H](C)C(OC(=O)c3cn(-c4ccccc4)nn3)O[C@@H]3O[C@@]4(C)CC[C@H]1[C@]32OO4 (some centres undefined) | 5.14 | < 5.00 | 5.47 | < 5.00 |  |  |  |  | 
C[C@@H]1CC[C@H]2[C@@H](C)C(OC(=O)c3ccc(Cn4cc(Cl)cn4)cc3)O[C@@H]3O[C@@]4(C)CC[C@H]1[C@]32OO4 (some centres undefined) | 5.29 | 5.29 | 5.59 | < 5.00 |  |  |  |  | 
COc1ccc2[nH]cc(CCNC(=O)CCC(=O)OC3O[C@@H]4O[C@@]5(C)CC[C@@H]6[C@H](C)CC[C@@H]([C@H]3C)[C@@]46OO5)c2c1 (some centres undefined) | 5.14 | < 5.00 | 5.18 | < 5.00 |  |  |  |  | 
COc1ccc(-n2cc(COC(=O)CCC(=O)OC3O[C@@H]4O[C@@]5(C)CC[C@@H]6[C@H](C)CC[C@@H]([C@H]3C)[C@@]46OO5)nn2)cc1 (some centres undefined) | 5.80 | 5.14 | 5.56 | < 5.00 |  |  |  |  | 
CCCCCNC(=O)OC1O[C@@H]2O[C@@]3(C)CC[C@@H]4[C@H](C)CC[C@@H]([C@H]1C)[C@@]24OO3 (some centres undefined) | 5.85 | 5.12 | 5.74 | < 5.00 |  |  |  |  | 
C[C@@H]1CC[C@H]2[C@@H](C)C(OC(=O)c3cn(-c4ccc(Cl)cc4)nn3)O[C@@H]3O[C@@]4(C)CC[C@H]1[C@]32OO4 (some centres undefined) | 5.09 | < 5.00 | 5.51 | 5.03 |  |  |  |  | 
COc1ccc(-n2cc(COC(=O)CCC(=O)OC3O[C@@H]4O[C@@]5(C)CC[C@@H]6[C@H](C)CC[C@@H]([C@H]3C)[C@@]46OO5)nn2)cc1OC (some centres undefined) | 5.54 | 5.10 | 5.75 | < 5.00 |  |  |  |  | 
C[C@@H]1CC[C@H]2[C@@H](C)C(OC(=O)CCc3nc(-c4ccc(Cl)cc4)no3)O[C@@H]3O[C@@]4(C)CC[C@H]1[C@]32OO4 (some centres undefined) | < 5.00 | 5.17 | 5.43 | 5.15 |  |  |  |  | 
COc1ccc(-n2cc(C(=O)OC3O[C@@H]4O[C@@]5(C)CC[C@@H]6[C@H](C)CC[C@@H]([C@H]3C)[C@@]46OO5)nn2)cc1 (some centres undefined) | 5.08 | < 5.00 | 5.50 | 5.06 |  |  |  |  | 
C[C@@H]1CC[C@H]2[C@@H](C)C(OC(=O)CCC(=O)OCc3cn(-c4ccccc4)nn3)O[C@@H]3O[C@@]4(C)CC[C@H]1[C@]32OO4 (some centres undefined) | 5.75 | 5.19 | 5.62 | < 5.00 |  |  |  |  | 
C[C@@H]1CC[C@H]2[C@@H](C)C(OC(=O)c3ccc4ncccc4c3)O[C@@H]3O[C@@]4(C)CC[C@H]1[C@]32OO4 (some centres undefined) | 5.52 | < 5.00 | 5.49 | < 5.00 |  |  |  |  | 

SMILES | pIC50 [1] | pIC50 [2] | pIC50 [3] | pIC50 [4] | IC50 at 72 h [5] [µM] | selectivity ratio [6] | selectivity ratio [7] | selectivity ratio [8] | selectivity ratio [9]
C[C@@H]1CC[C@H]2[C@@H](C)C(OC(=O)c3ccc(Cn4cc(Br)cn4)cc3)O[C@@H]3O[C@@]4(C)CC[C@H]1[C@]32OO4 (some centres undefined) | < 5.00 | 5.31 | 5.72 | 5.07 |  |  |  |  | 
C[C@@H]1CC[C@H]2[C@@H](C)C(OC(=O)CCc3nc(-c4ccc(F)cc4)no3)O[C@@H]3O[C@@]4(C)CC[C@H]1[C@]32OO4 (some centres undefined) | 5.14 | 5.18 | 5.53 | 5.29 |  |  |  |  | 
C[C@@H]1CC[C@H]2[C@@H](C)C(OC(=O)c3cn(-c4ccc([N+](=O)[O-])cc4)nn3)O[C@@H]3O[C@@]4(C)CC[C@H]1[C@]32OO4 (some centres undefined) | 5.37 | < 5.00 | < 5.00 | < 5.00 |  |  |  |  | 
C[C@@H]1CC[C@H]2[C@@H](C)C(OC(=O)c3cc4ccccc4cn3)O[C@@H]3O[C@@]4(C)CC[C@H]1[C@]32OO4 (some centres undefined) | 5.32 | < 5.00 | 5.26 | < 5.00 |  |  |  |  | 
C[C@@H]1CC[C@H]2[C@@H](C)C(OC(=O)NC(=O)c3ccccc3)O[C@@H]3O[C@@]4(C)CC[C@H]1[C@]32OO4 (some centres undefined) | < 5.00 | < 5.00 | 5.26 | < 5.00 |  |  |  |  | 
C[C@@H]1CC[C@H]2[C@@H](C)C(OC(=O)c3cnc4ccccc4c3)O[C@@H]3O[C@@]4(C)CC[C@H]1[C@]32OO4 (some centres undefined) | < 5.00 | < 5.00 | 5.58 | 5.08 |  |  |  |  | 
CCCCNC(=O)OC1O[C@@H]2O[C@@]3(C)CC[C@@H]4[C@H](C)CC[C@@H]([C@H]1C)[C@@]24OO3 (some centres undefined) | < 5.00 | < 5.00 | 5.45 | < 5.00 |  |  |  |  | 
C[C@@H]1CC[C@H]2[C@@H](C)C(OC(=O)CCc3nc(-c4ccc(Cl)c(Cl)c4)no3)O[C@@H]3O[C@@]4(C)CC[C@H]1[C@]32OO4 (some centres undefined) | < 5.00 | 5.04 | 5.67 | < 5.00 |  |  |  |  | 
C[C@@H]1CC[C@H]2[C@@H](C)C(OC(=O)c3ccc(Cn4ccc5ccc(F)cc54)cc3)O[C@@H]3O[C@@]4(C)CC[C@H]1[C@]32OO4 (some centres undefined) | 5.36 | 6.05 | 6.33 | < 5.00 |  |  |  |  | 
C[C@@H]1CC[C@H]2[C@@H](C)C(OC(=O)CCC(=O)NCCc3c[nH]c4ccc(Cl)cc34)O[C@@H]3O[C@@]4(C)CC[C@H]1[C@]32OO4 (some centres undefined) | 5.76 | 5.14 | 5.30 | < 5.00 |  |  |  |  | 
C[C@@H]1CC[C@H]2[C@@H](C)C(OC(=O)c3cn(-c4ccc(F)cc4)nn3)O[C@@H]3O[C@@]4(C)CC[C@H]1[C@]32OO4 (some centres undefined) | 5.02 | < 5.00 | 5.47 | < 5.00 |  |  |  |  | 
COc1ccc(-c2noc(CCC(=O)OC3O[C@@H]4O[C@@]5(C)CC[C@@H]6[C@H](C)CC[C@@H]([C@H]3C)[C@@]46OO5)n2)cc1 (some centres undefined) | < 5.00 | < 5.00 | 5.46 | 5.30 |  |  |  |  | 
C[C@@H]1CC[C@H]2[C@@H](C)C(OC(=O)CCC(=O)OCc3cn(-c4ccc(Cl)cc4)nn3)O[C@@H]3O[C@@]4(C)CC[C@H]1[C@]32OO4 (some centres undefined) | 5.96 | < 5.00 | 5.52 | < 5.00 |  |  |  |  | 
C[C@@H]1CC[C@H]2[C@@H](C)C(OC(=O)c3cccc4ncccc34)O[C@@H]3O[C@@]4(C)CC[C@H]1[C@]32OO4 (some centres undefined) | 5.52 | < 5.00 | 5.43 | < 5.00 |  |  |  |  | 
COc1cc(-n2cc(C(=O)OC3O[C@@H]4O[C@@]5(C)CC[C@@H]6[C@H](C)CC[C@@H]([C@H]3C)[C@@]46OO5)nn2)cc(OC)c1OC (some centres undefined) | 5.72 | < 5.00 | 5.36 | < 5.00 |  |  |  |  | 
C[C@@H]1CC[C@H]2[C@@H](C)C(OC(=O)c3cn(-c4ccc(Br)cc4)nn3)O[C@@H]3O[C@@]4(C)CC[C@H]1[C@]32OO4 (some centres undefined) | 5.13 | < 5.00 | 5.41 | < 5.00 |  |  |  |  | 
CCCCCCCNC(=O)OC1O[C@@H]2O[C@@]3(C)CC[C@@H]4[C@H](C)CC[C@@H]([C@H]1C)[C@@]24OO3 (some centres undefined) | 5.41 | 5.10 | 5.92 | < 5.00 |  |  |  |  | 
C[C@@H]1CC[C@H]2[C@@H](C)C(OC(=O)c3ccc(Cn4cncn4)cc3)O[C@@H]3O[C@@]4(C)CC[C@H]1[C@]32OO4 (some centres undefined) | 5.08 | 5.14 | 5.47 | < 5.00 |  |  |  |  | 
